In patent publication US20050234113A1, “Antioxidant and radical scavenging activity of synthetic analogs of desferrithiocin” (University of Florida Research Foundation, Inc., priority 2002, published 2005):
Where “and” joins values, the source holds several entries; their conditions need not be identical. Identical values can stand only once. Entries after “also recorded” stand apart in the source; their conditions may differ. Like-named read-outs stand apart in the source and are kept apart here. Marks after values point to notes of the source that are not given here.

Key:
[1] = Prevention of iron-mediated oxidation of ascorbate (ascorbate-mediated reduction of Fe(III)); details: ascorbate 100 μM, FeCl3 30 μM, pH 7.4, ligand/Fe ratios 0-3, 40 min
[2] = Quenching of the ABTS radical cation
[3] = system: iron; details: cited from earlier work
[4] = Table 1, A734, six-minute reaction, pH 7.4, 1.25 to 15 μM
[5] = Table 3, A734, 6-min reaction, values marked b are the inventors' unpublished results
[6] = 150 μmol/kg sc, suspension in water, n = 3
[7] = 300 μmol/kg po, in 40% Cremophor
[8] = 150 μmol/kg po (footnote d: dose administered, 300 μmol/kg)

O=C(O)[C@H]1CSC(c2ccc(O)cc2O)=N1 [4′-(HO)-DADMDFT, 4′-hydroxydesazadesmethyldesferrithiocin]
effect on ascorbate-mediated reduction of Fe(III) (in words) [1]: significant protection
Slope × 10^3 OD units/μM (ABTS radical cation quenching) [2, 4]: −101.6 × 10^3 OD units/μM
Slope × 10^3 OD units/μM (ABTS radical cation quenching) [2, 5]: −102^b × 10^3 OD units/μM
% stool (of iron excreted), monkeys [3, 6]: 92%
% urine (of iron excreted), monkeys [3, 6]: 8%
efficiency in monkeys (%) [3, 6]: 5.6±0.9% and 5.6 ± 0.9^f %
% stool (of iron excreted), monkeys [3, 7]: 90%
% urine (of iron excreted), monkeys [3, 7]: 10%
efficiency in monkeys (%) [3, 7]: 5.3±1.7% and 5.3 ± 1.7^f %

CC(=O)N(O)CCCCCNC(=O)CCC(=O)N(O)CCCCCNC(=O)CCC(=O)N(O)CCCCCN [DFO, Desferrioxamine B, reference compound]
effect on ascorbate-mediated reduction of Fe(III) (in words) [1]: inhibited; also recorded: significant inhibition
Slope × 10^3 OD units/μM (ABTS radical cation quenching) [2, 4]: −136.8 × 10^3 OD units/μM
Slope × 10^3 OD units/μM (ABTS radical cation quenching) [2, 5]: −137^b × 10^3 OD units/μM
% stool (of iron excreted), monkeys [3, 8]: 55%
% urine (of iron excreted), monkeys [3, 8]: 45%
efficiency in monkeys (%) [3, 8]: 0.1±0.4% and 0.1 ± 0.4^d %
% stool (of iron excreted), monkeys ([3]; 150 μmol/kg sc, n = 5): 45%
% urine (of iron excreted), monkeys ([3]; 150 μmol/kg sc, n = 5): 55%
efficiency in monkeys (%) ([3]; 150 μmol/kg sc, n = 5): 5.5±0.9%
